The data set is described as follows: gradient 5% acetonitrile 3 min, to 50% in 2 min, to 85% in 15 min, held 3 min, 100 µL/min. The settings on record: column: Zorbax Extend-C18 2.1 x 50 mm; eluents: water / acetonitrile, 0.1% formic acid. Put shortly: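 In both positive and negative ionization mode, a quadrupole time-of-flight mass spectrometer coupled to HPLC analyzed pure standards run in mixtures of ~100 molecules. The Zorbax Extend-C18 column (2.1 × 50 mm, 1.8 μm) was operated at 100 μL/min with water and acetonitrile, each containing 0.1% formic acid. The dead volume was 40 μL and the dwell volume 900 μL. Retention time came from adduct peaks that were computationally picked and individually inspected by hand.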
The compound `Cc1ccccc1NC(=O)C(C)n1nc(C)c2nn(-c3ccccc3)c(-n3cccc3)c2c1=O` (stereo not given) came in with an RP-LC retention time of 1090 s.

The compound `Cc1noc(C)c1C1CCCN1C(=O)Cc1ccccc1Cl` (stereo not given) had an RP-LC retention time of 806 s.

With `COc1ccccc1CN1CCC(CNS(=O)(=O)c2ccc3c(c2)CCCC(=O)N3)CC1`, the RP-LC retention time was 566 s.

`CN(C)c1nc2ncn3c(=O)n(CC(=O)Nc4cc(F)cc(F)c4)nc3c2s1`: the RP-LC retention time is 741 s.

On to `COc1ccc(NC(=O)N2CCC(c3nc(C(=O)N4CCCC4)c(C)o3)CC2)cc1`, for which the RP-LC retention time is 727 s.

Turning to `CCOc1ccccc1-c1nc(Cc2noc(-c3ccncc3)n2)c(C)o1`, the RP-LC retention time came out at 918 s.

For the compound `COC(=O)c1cnc2nc(C)ccc2c1Nc1cc(OC)ccc1OC`, the RP-LC retention time was 667 s.

For the compound `Cc1nc(Nc2ccc(F)cn2)sc1C(=O)NCCc1ccc(Cl)cc1`, the RP-LC retention time amounted to 936 s.

The compound `CCCNC(=O)C1CCCN(c2ccc(SCC(=O)Nc3ccccc3C(F)(F)F)nn2)C1` (stereo not given) had an RP-LC retention time of 690 s.

Consider `CCOc1ccccc1NC(=O)CSc1nnc(-c2cccnc2)o1`, for which the RP-LC retention time is 730 s.

`COc1ccccc1CNC(=O)c1nnc(-c2ccc(S(=O)(=O)N3CCCCC3)cc2)o1` registered an RP-LC retention time of 911 s.

Take `CCOC(=O)CCC(=O)N1CCCC(COCc2ccccc2)C1` (stereo not given): the RP-LC retention time turned out to be 842 s.

Compound `CCN1CCN(c2cc(C(=O)O)c3cc(NS(=O)(=O)c4cc(C)c(C)cc4C)ccc3n2)CC1` gave an RP-LC retention time of 629 s.

The compound `O=S(=O)(c1ccccc1)c1nnn2c1nc(NCc1ccc(F)cc1)c1sccc12` gave an RP-LC retention time of 837 s.

As to `Cc1ccc(Nc2c(-c3ccc(N4CCOCC4)cc3)nc3ccccn23)cc1`, the RP-LC retention time came out at 682 s.

For the compound `COCCN1CC2(CCN(S(=O)(=O)c3ccc(C(C)C)cc3)CC2)C1c1ccccc1` (stereo not given), the RP-LC retention time is 776 s.

For the compound `O=C(CCc1c(-c2ccccc2)nc2ccccn12)Nc1ccc(F)cc1`, the RP-LC retention time turned out to be 674 s.

In turn, `COCCCNC(=O)C1CCCN(c2cc(=O)n(C)c(=O)n2C)C1` (stereo not given) yielded an RP-LC retention time of 585 s.

For the compound `Cc1ccccc1CN1C(=O)CN(S(=O)(=O)c2ccccc2)CC1(C)C(=O)NCc1ccccc1` (stereo not given), the RP-LC retention time was 905 s.

As for `Cc1ccc(S(=O)(=O)NCCC(=O)N2CCCC2c2nc(-c3ccc(Cl)cc3)no2)cc1` (stereo not given), the RP-LC retention time came to 1040 s.

The compound `COc1ccc(CC(=O)NC(C)C(=O)Nc2nc3ccccc3[nH]2)c(Cl)c1` (stereo not given) showed an RP-LC retention time of 676 s.

`O=C([C@@H]1C[C@H](F)CN1C(=O)COc1ccc(F)cc1)N1CCCCC1` returned an RP-LC retention time of 714 s.

With `Cn1nc(-c2nnc(-c3ccccc3)o2)c2c1CCN(S(=O)(=O)c1cccc(Cl)c1)C2`, the RP-LC retention time worked out at 990 s.

In turn, `CCCn1cc(C(=O)NC(C)c2ccc(OC)cc2)c2cccnc21` (stereo not given) gave an RP-LC retention time of 869 s.

`CC(C)n1ccnc(N2CCOCC2)c1=O` returned an RP-LC retention time of 601 s.

In turn, `CC(C)=CCC/C(C)=C\C(N)=O` returned an RP-LC retention time of 816 s.

As to `Brc1cccc(-c2nnc3sc(-c4ccncc4)nn23)c1`, the RP-LC retention time is 838 s.

As to `O=C1CN(S(=O)(=O)c2cccc(C(F)(F)F)c2)CC2(CCCCC2)N1C1CCCC1`, the RP-LC retention time is 1250 s.

In turn, `CCN(c1ccccc1)S(=O)(=O)c1ccc(C(=O)Nc2cc(C)no2)cc1` returned an RP-LC retention time of 882 s.

Compound `O=C(C1CCN(c2cc(N3CCCCC3)ncn2)CC1)N1CCCCC1` showed an RP-LC retention time of 652 s.

As to `CCN(CC)C(=O)c1ccc2c(c1)N(CC(=O)N1CCC(C)CC1)C(=O)C1CCCCN21` (stereo not given), the RP-LC retention time turned out to be 838 s.

In turn, `S=c1cc(N2CCSCC2)[nH]cn1` showed an RP-LC retention time of 602 s.

`O=C(Cn1nc(C(=O)N2CCOCC2)cc1C1CC1)NCCCN1CCCC1=O` showed an RP-LC retention time of 566 s.

In the case of `Cc1cc(C)cc(-n2ccn(Cc3nc(-c4ccc(Cl)c(F)c4)no3)c(=O)c2=O)c1`, the RP-LC retention time was determined as 976 s.

`CC(C)(C)C(=O)Nc1cnc(N2CCNCC2)c(C(=O)N2CCCC2)c1` came in with an RP-LC retention time of 588 s.

In turn, `O=C(CCc1c(-c2ccc(Br)cc2)nc2ccccn12)NC1CC1` had an RP-LC retention time of 610 s.

As to `Cc1nc(Cn2cccc2C(=O)Nc2ccccc2)no1`, the RP-LC retention time was 820 s.

Compound `O=C(Nc1ccc2c(c1)OCCO2)C1CCN(C(=O)c2cccc(F)c2)CC1` returned an RP-LC retention time of 697 s.

With `CCOc1ccccc1NC(=O)N1CCCC(Cn2c(C3CC3)nc3cccnc32)C1` (stereo not given), the RP-LC retention time was 725 s.

In turn, `CCOc1ccc(S(=O)(=O)N2CCCC(C(=O)N3CCOCC3)C2)cc1` (stereo not given) yielded an RP-LC retention time of 777 s.

Take `CCOc1cc(CNc2ccc3[nH]c(=O)[nH]c3c2)cc(Br)c1OCC`: the RP-LC retention time came to 717 s.

Consider `Cc1ccc(OCC(O)Cn2c(C3CC3)nc3ccccc32)cc1C` (stereo not given), for which the RP-LC retention time amounted to 724 s.

The compound `Cc1cccc(NC(=O)C2CCN(S(=O)(=O)c3cn(C(C)C)cn3)CC2)c1` came in with an RP-LC retention time of 781 s.

`Cc1nc(C)c(C(=O)NCC2Cn3cccc3C(=O)N2CC(C)C)s1` (stereo not given) had an RP-LC retention time of 671 s.

For `CCC(=O)N1CCCC1c1nc(CCOCC2CCCC2)no1` (stereo not given), the RP-LC retention time is 837 s.

As for `O=C(CN1CCCCC1c1nc(-c2ccc(F)cc2)no1)NC1CCCCC1` (stereo not given), the RP-LC retention time came out at 1150 s.

For `O=C(Cn1nc2c3cc(-c4ccccc4)nn3ccn2c1=O)NC1CCCCC1`, the RP-LC retention time stood at 873 s.

Take `O=C([C@@H]1C[C@H](F)CN1C(=O)Nc1cccc(C(F)(F)F)c1)N1CCOCC1`: the RP-LC retention time turned out to be 698 s.

Regarding `CCN(CC)C(=O)c1ccc(-c2nc3cc(NS(=O)(=O)c4ccc(F)cc4)ccc3n2C)cc1`, the RP-LC retention time was 699 s.

For the compound `CCNS(=O)(=O)c1cccnc1Nc1cccc(Br)c1`, the RP-LC retention time came to 1040 s.

`CCC(=O)N1CCN(c2nc3c(s2)CC(C(=O)NCc2cc(F)ccc2F)CC3)CC1` (stereo not given) had an RP-LC retention time of 601 s.

Take `CC(=O)Cc1nsc(NC(=O)c2ccc(C(C)(C)C)cc2)n1`: the RP-LC retention time amounted to 874 s.

Consider `CN1CCCC2C(c3ccccc3)C(C3=NCCCC3)C(c3ccccc3)CC21` (stereo not given), for which the RP-LC retention time was found to be 589 s.

`CCOc1ccc(-c2nc(-c3ccc4ncn(CC)c4c3)no2)cc1` returned an RP-LC retention time of 829 s.

In turn, `O=C(Cn1c(=O)c2cccn2c2ccc(F)cc21)NCCN1CCCCCC1` came in with an RP-LC retention time of 623 s.

For `CCN1C(=O)C(C)(C(=O)Nc2ccc(C)cc2C)Oc2cccnc21` (stereo not given), the RP-LC retention time came to 744 s.

`COc1ccc(C(=O)N2C[C@@H]3C[C@H](NC(=O)c4cccnc4)[C@H]2C3)c(OC)c1` had an RP-LC retention time of 605 s.

For `CN(C)CCN1CC(C(=O)N2CCC(c3c[nH]c4ccccc34)(c3c[nH]c4ccccc34)CC2)CC1=O` (stereo not given), the RP-LC retention time came out at 657 s.

In the case of `CN(C)C(=O)c1ccc2c(c1)nnn2CCNC(=O)Nc1ccccc1`, the RP-LC retention time stood at 626 s.

In turn, `O=C(Nc1cccc(C(F)(F)F)c1)N1CCC(n2cnnc2C2CC2)C1` (stereo not given) registered an RP-LC retention time of 701 s.

`COC(=O)c1sc(-c2ccccc2)cc1NC(=O)c1ccc([N+](=O)[O-])s1`: the RP-LC retention time stood at 1370 s.

Take `COc1ccccc1NC(=O)C1CCN(S(=O)(=O)c2cn(C(C)C)cn2)CC1`: the RP-LC retention time was 757 s.

Compound `CCOC(=O)N1CCN(C(=O)C2CCC(CNS(=O)(=O)CC)CC2)CC1` (stereo not given) returned an RP-LC retention time of 631 s.

For `COc1ccc(-c2cc(N3CCC(NC(=O)C4(c5ccccc5)CC4)CC3)n[nH]2)cc1`, the RP-LC retention time amounted to 817 s.

`O=C(NC1CCCC1)C1CC(=O)N(c2ccc3c(c2)CCN3C(=O)C2CCC2)C1` (stereo not given) registered an RP-LC retention time of 760 s.

`O=C(c1cn[nH]c1)N1CCC(c2nc(CCOCC3CCCC3)no2)C1` (stereo not given) had an RP-LC retention time of 717 s.

With `CCOC(=O)c1noc2nc(C)nc(N3CCc4ccccc4C3)c12`, the RP-LC retention time was 1120 s.

Compound `O=C([C@@H]1C[C@H](F)CN1C(=O)c1ccc(F)cc1)N1CCCCC1` had an RP-LC retention time of 684 s.

Compound `COc1ccc(Cc2nc(-c3ccc4c(c3)nc(C)c(=O)n4C)no2)cc1OC` had an RP-LC retention time of 894 s.

For `Cc1ccc2c(=O)c(C(=O)N3CCCC3)cn(CC(=O)Nc3cc(F)ccc3F)c2n1`, the RP-LC retention time was determined as 703 s.

`O=C(CCC1CCCN(c2cc(NC3CC3)ncn2)C1)NCc1cccs1` (stereo not given) yielded an RP-LC retention time of 640 s.

Take `O=C(O)c1nnn(-c2cccc(Cl)c2)c1C(F)(F)F`: the RP-LC retention time turned out to be 806 s.

With `O=C(c1nc2ncccn2n1)N1CCCn2cc(-c3ccccc3)nc21`, the RP-LC retention time turned out to be 595 s.

With `Cc1cc(OCC(=O)N2CCC(C)CC2)nc(-c2ccc(F)cc2)n1`, the RP-LC retention time was 1040 s.

For the compound `COc1cccc(C2Cn3nnc(-c4nc(-c5ccsc5)no4)c3CO2)c1` (stereo not given), the RP-LC retention time worked out at 1070 s.

In the case of `O=C(Nc1cccc(F)c1)c1c(O)c2cccnc2n(-c2cccc(F)c2)c1=O`, the RP-LC retention time was found to be 723 s.

`Cc1cccc(NS(=O)(=O)c2ccc3c(c2)C(=O)N(C)c2ncccc2O3)c1` displayed an RP-LC retention time of 1050 s.

The compound `CC(C)c1noc(-c2cc(=O)n(CC(=O)NCc3ccccc3)c3ccccc23)n1` yielded an RP-LC retention time of 940 s.

The compound `COCC(=O)N1CCc2c([nH]c3ccccc23)C1c1ccccc1` (stereo not given) yielded an RP-LC retention time of 935 s.

For the compound `CCOC(=O)c1c(C)[nH]c(C(=O)N2CCC(CC(=O)NC(C)C)CC2)c1C`, the RP-LC retention time came out at 683 s.

Values taken from the METLIN SMRT retention time set (Domingo-Almenara et al. 2019).
